The assay addresses T1, Receptor-interacting protein kinase 1 (RIPK1) (Homo sapiens, UniProt Q13546).
T1 construct: with VHL
The assay is described as follows: cell-based. Also noted: HiBiT luminescence of CRISPR-tagged endogenous RIPK1 (C-terminal HiBiT) after PROTAC treatment; degradation DC50 and Dmax. The settings on record: HEK293T-RIPK1-HiBiT cells; read-out: Dmax (HEK293T-RIPK1-HiBiT cell line). The procedure: Screening of RIPK1 Degraders Using HEK-293T-RIPK1-HiBiT cells  3 Primary screening RIPK1 degraders using HEK293T-RIPK1-HiBiT cell line. Cells were seeded in 96-well plates and treated with test compounds for 20 h. After treatment, Bioluminescence signal reflecting RIPK1 protein level was generated by adding Nano-Glo HiBiT detect reagent. A) Bioluminescence signal was visualized using Bio-Rad ChemiDoc MP Imaging system. The grayscale intensity is positively correlated with protein abundance. B) Relative luminescence Units (RLUs) in each well was measured using CLARIOstar plate reader. DC50 values were calculated by nonlinear regression analysis in GraphPad Prism software. DC50 = dose that reduces RIPK1 protein by 50%. D max = maximum reduction of RIPK1 protein achieved by the compound. Guide RNA oligos for RIPK1 (foward: CACCGA-GCCCAT-CCAGGG-TTAGTTC. reverse: AAACGA-ACTAAC-CCTGGA-TGGGCTC) were cloned into Cas9 expression plasmid (pSpCas9–2A-GFP purchased from Addgene), and cotransfected with donor DNA oligo using FuGENE HD Transfection Reagent (Promega). GFP positive cells were FACS sorted and single clones were screened for HiBiT signal by Nano Glo HiBiT Lytic Detection System (Promega).

T1 sequence (Q13546 whole entry): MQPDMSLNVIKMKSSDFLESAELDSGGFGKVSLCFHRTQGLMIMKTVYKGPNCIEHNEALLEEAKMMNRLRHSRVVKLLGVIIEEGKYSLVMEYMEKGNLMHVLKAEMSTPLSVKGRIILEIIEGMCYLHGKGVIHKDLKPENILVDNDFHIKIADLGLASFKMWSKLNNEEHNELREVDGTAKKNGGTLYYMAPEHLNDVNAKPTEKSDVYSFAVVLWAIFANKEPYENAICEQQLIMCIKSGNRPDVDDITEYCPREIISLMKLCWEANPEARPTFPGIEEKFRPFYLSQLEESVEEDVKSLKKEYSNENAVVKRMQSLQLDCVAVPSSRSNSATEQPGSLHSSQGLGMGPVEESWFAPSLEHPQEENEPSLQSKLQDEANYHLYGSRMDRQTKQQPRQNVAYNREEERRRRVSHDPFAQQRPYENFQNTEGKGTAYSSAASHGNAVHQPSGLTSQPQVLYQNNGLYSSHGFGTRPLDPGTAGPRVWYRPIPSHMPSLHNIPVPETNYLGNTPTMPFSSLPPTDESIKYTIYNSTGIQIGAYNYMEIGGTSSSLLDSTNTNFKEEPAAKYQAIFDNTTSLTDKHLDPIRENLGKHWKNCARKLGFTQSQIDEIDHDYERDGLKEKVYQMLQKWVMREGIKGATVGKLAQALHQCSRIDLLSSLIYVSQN
T1 sequence (P40337 whole entry partner): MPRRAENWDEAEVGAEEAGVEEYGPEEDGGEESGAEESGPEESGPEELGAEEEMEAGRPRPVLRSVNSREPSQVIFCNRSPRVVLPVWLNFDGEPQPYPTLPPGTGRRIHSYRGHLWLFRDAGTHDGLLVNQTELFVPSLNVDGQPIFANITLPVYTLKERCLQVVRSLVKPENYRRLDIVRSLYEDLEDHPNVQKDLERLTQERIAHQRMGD

As to `Cc1ncsc1-c1ccc([C@H](C)NC(=O)[C@@H]2C[C@@H](O)CN2C(=O)[C@@H](NC(=O)COc2ccc(CCNC(=O)Cn3cc(-c4cnc(N)c5c(-c6ccc7c(c6)CCN7C(=O)Cc6ccccc6)csc45)cn3)cc2)C(C)(C)C)cc1` [204-2], the Dmax worked out at 95%.
As for `Cc1ncsc1-c1ccc([C@H](C)NC(=O)[C@@H]2C[C@@H](O)CN2C(=O)[C@@H](NC(=O)CCOc2ccc(CCNC(=O)Cn3cc(-c4cnc(N)c5c(-c6ccc7c(c6)CCN7C(=O)Cc6ccccc6)csc45)cn3)cc2)C(C)(C)C)cc1` [204-4], the figure is 96%; as for `Cc1ncsc1-c1ccc([C@H](C)NC(=O)[C@@H]2C[C@@H](O)CN2C(=O)[C@@H](NC(=O)CCCOc2ccc(CCNC(=O)Cn3cc(-c4cnc(N)c5c(-c6ccc7c(c6)CCN7C(=O)Cc6ccccc6)csc45)cn3)cc2)C(C)(C)C)cc1` [204-6], 81%; as for `Cc1ncsc1-c1ccc([C@H](C)NC(=O)[C@@H]2C[C@@H](O)CN2C(=O)[C@@H](NC(=O)COCCOCCNC(=O)Cn2cc(-c3cnc(N)c4c(-c5ccc6c(c5)CCN6C(=O)Cc5ccccc5)csc34)cn2)C(C)(C)C)cc1` [208-2], 78%.
As for `Cc1ncsc1-c1ccc([C@H](C)NC(=O)[C@@H]2C[C@@H](O)CN2C(=O)[C@@H](NC(=O)COCCOCCOCCNC(=O)Cn2cc(-c3cnc(N)c4c(-c5ccc6c(c5)CCN6C(=O)Cc5ccccc5)csc34)cn2)C(C)(C)C)cc1` [208-4], the figure is 75%; as for `Cc1ncsc1-c1ccc([C@H](C)NC(=O)[C@@H]2C[C@@H](O)CN2C(=O)[C@@H](NC(=O)COCCOCCOCCOCCNC(=O)Cn2cc(-c3cnc(N)c4c(-c5ccc6c(c5)CCN6C(=O)Cc5ccccc5)csc34)cn2)C(C)(C)C)cc1` [208-6], 55%.
Next, `Cc1ncsc1-c1ccc([C@H](C)NC(=O)[C@@H]2C[C@@H](O)CN2C(=O)[C@@H](NC(=O)COc2ccc(CNC(=O)Cn3cc(-c4cnc(N)c5c(-c6ccc7c(c6)CCN7C(=O)Cc6ccccc6)csc45)cn3)cc2)C(C)(C)C)cc1` [214-6]: 71%; `Cc1ncsc1-c1ccc([C@H](C)NC(=O)[C@@H]2C[C@@H](O)CN2C(=O)[C@@H](NC(=O)CCCOc2ccc(CNC(=O)Cn3cc(-c4cnc(N)c5c(-c6ccc7c(c6)CCN7C(=O)Cc6ccccc6)csc45)cn3)cc2)C(C)(C)C)cc1` [214-7]: 81%.
For `Cc1ncsc1-c1ccc([C@H](C)NC(=O)[C@@H]2C[C@@H](O)CN2C(=O)[C@@H](NC(=O)CCCCOc2ccc(CNC(=O)Cn3cc(-c4cnc(N)c5c(-c6ccc7c(c6)CCN7C(=O)Cc6ccccc6)csc45)cn3)cc2)C(C)(C)C)cc1` [214-8], the Dmax turned out to be 90%.
Next, `Cc1ncsc1-c1ccc([C@H](C)NC(=O)[C@@H]2C[C@@H](O)CN2C(=O)[C@@H](NC(=O)CCCCCOc2ccc(CNC(=O)Cn3cc(-c4cnc(N)c5c(-c6ccc7c(c6)CCN7C(=O)Cc6ccccc6)csc45)cn3)cc2)C(C)(C)C)cc1` [214-9]: 87%; `Cc1ncsc1-c1ccc([C@H](C)NC(=O)[C@@H]2C[C@@H](O)CN2C(=O)[C@@H](NC(=O)CCCCCCOc2ccc(CNC(=O)Cn3cc(-c4cnc(N)c5c(-c6ccc7c(c6)CCN7C(=O)Cc6ccccc6)csc45)cn3)cc2)C(C)(C)C)cc1` [214-10]: 92%; `Cc1ncsc1-c1ccc([C@H](C)NC(=O)[C@@H]2C[C@@H](O)CN2C(=O)[C@@H](NC(=O)CNC(=O)Cn2cc(-c3cnc(N)c4c(-c5ccc6c(c5)CCN6C(=O)Cc5ccccc5)csc34)cn2)C(C)(C)C)cc1` [216-9]: 1%.
As for `Cc1ncsc1-c1ccc([C@H](C)NC(=O)[C@@H]2C[C@@H](O)CN2C(=O)[C@@H](NC(=O)CCNC(=O)Cn2cc(-c3cnc(N)c4c(-c5ccc6c(c5)CCN6C(=O)Cc5ccccc5)csc34)cn2)C(C)(C)C)cc1` [216-10], the figure is 25%.
As for `Cc1ncsc1-c1ccc([C@H](C)NC(=O)[C@@H]2C[C@@H](O)CN2C(=O)[C@@H](NC(=O)CCCNC(=O)Cn2cc(-c3cnc(N)c4c(-c5ccc6c(c5)CCN6C(=O)Cc5ccccc5)csc34)cn2)C(C)(C)C)cc1` [216-11], the figure is 62%.
With `Cc1ncsc1-c1ccc([C@H](C)NC(=O)[C@@H]2C[C@@H](O)CN2C(=O)[C@@H](NC(=O)CCCCNC(=O)Cn2cc(-c3cnc(N)c4c(-c5ccc6c(c5)CCN6C(=O)Cc5ccccc5)csc34)cn2)C(C)(C)C)cc1` [216-12], the Dmax stood at 51%.
For `Cc1ncsc1-c1ccc([C@H](C)NC(=O)[C@@H]2C[C@@H](O)CN2C(=O)[C@@H](NC(=O)CCCCCNC(=O)Cn2cc(-c3cnc(N)c4c(-c5ccc6c(c5)CCN6C(=O)Cc5ccccc5)csc34)cn2)C(C)(C)C)cc1` [216-13], the Dmax turned out to be 93%.
As for `Cc1ncsc1-c1ccc([C@H](C)NC(=O)[C@@H]2C[C@@H](O)CN2C(=O)[C@@H](NC(=O)CCCCCCNC(=O)Cn2cc(-c3cnc(N)c4c(-c5ccc6c(c5)CCN6C(=O)Cc5ccccc5)csc34)cn2)C(C)(C)C)cc1` [216-14], the figure is 88%.
Next, `Cc1ncsc1-c1ccc([C@H](C)NC(=O)[C@@H]2C[C@@H](O)CN2C(=O)[C@@H](NC(=O)CCCCCCCNC(=O)Cn2cc(-c3cnc(N)c4c(-c5ccc6c(c5)CCN6C(=O)Cc5ccccc5)csc34)cn2)C(C)(C)C)cc1` [216-15]: 94%; `Cc1ncsc1-c1ccc([C@H](C)NC(=O)[C@@H]2C[C@@H](O)CN2C(=O)[C@@H](NC(=O)CCCCCCCCNC(=O)Cn2cc(-c3cnc(N)c4c(-c5ccc6c(c5)CCN6C(=O)Cc5ccccc5)csc34)cn2)C(C)(C)C)cc1` [216-16]: 93%.
In the case of `Cc1ncsc1-c1ccc([C@H](C)NC(=O)[C@@H]2C[C@@H](O)CN2C(=O)[C@@H](NC(=O)COc2ccc(NC(=O)Cn3cc(-c4cnc(N)c5c(-c6ccc7c(c6)CCN7C(=O)Cc6ccccc6)csc45)cn3)cc2)C(C)(C)C)cc1` [217-10], the Dmax stood at 96%.
On to `Cc1ncsc1-c1ccc([C@H](C)NC(=O)[C@@H]2C[C@@H](O)CN2C(=O)[C@@H](NC(=O)CCCOc2ccc(NC(=O)Cn3cc(-c4cnc(N)c5c(-c6ccc7c(c6)CCN7C(=O)Cc6ccccc6)csc45)cn3)cc2)C(C)(C)C)cc1` [217-11], for which the Dmax stood at 95%.
Regarding `Cc1ncsc1-c1ccc([C@H](C)NC(=O)[C@@H]2C[C@@H](O)CN2C(=O)[C@@H](NC(=O)CCCCOc2ccc(NC(=O)Cn3cc(-c4cnc(N)c5c(-c6ccc7c(c6)CCN7C(=O)Cc6ccccc6)csc45)cn3)cc2)C(C)(C)C)cc1` [217-12], the Dmax amounted to 93%.
Regarding `Cc1ncsc1-c1ccc([C@H](C)NC(=O)[C@@H]2C[C@@H](O)CN2C(=O)[C@@H](NC(=O)CCCCCOc2ccc(NC(=O)Cn3cc(-c4cnc(N)c5c(-c6ccc7c(c6)CCN7C(=O)Cc6ccccc6)csc45)cn3)cc2)C(C)(C)C)cc1` [217-13], the greatest degradation seen (Dmax) is 92%.
As for `Cc1ncsc1-c1ccc([C@H](C)NC(=O)[C@@H]2C[C@@H](O)CN2C(=O)[C@@H](NC(=O)COCCOc2ccc(CNC(=O)Cn3cc(-c4cnc(N)c5c(-c6ccc7c(c6)CCN7C(=O)Cc6ccccc6)csc45)cn3)cc2)C(C)(C)C)cc1` [224-5], the figure is 93%; as for `Cc1ncsc1-c1ccc([C@H](C)NC(=O)[C@@H]2C[C@@H](O)CN2C(=O)[C@@H](NC(=O)COCCOc2ccc(CCNC(=O)Cn3cc(-c4cnc(N)c5c(-c6ccc7c(c6)CCN7C(=O)Cc6ccccc6)csc45)cn3)cc2)C(C)(C)C)cc1` [224-6], 93%; as for `Cc1ncsc1-c1ccc([C@H](C)NC(=O)[C@@H]2C[C@@H](O)CN2C(=O)[C@@H](NC(=O)COCCOCCOc2ccc(CNC(=O)Cn3cc(-c4cnc(N)c5c(-c6ccc7c(c6)CCN7C(=O)Cc6ccccc6)csc45)cn3)cc2)C(C)(C)C)cc1` [224-7], 93%.
Next, `Cc1ncsc1-c1ccc([C@H](C)NC(=O)[C@@H]2C[C@@H](O)CN2C(=O)[C@@H](NC(=O)COCCOCCOc2ccc(CCNC(=O)Cn3cc(-c4cnc(N)c5c(-c6ccc7c(c6)CCN7C(=O)Cc6ccccc6)csc45)cn3)cc2)C(C)(C)C)cc1` [224-8]: 92%.
Next, `Cc1ncsc1-c1ccc([C@H](C)NC(=O)[C@@H]2C[C@@H](O)CN2C(=O)[C@@H](NC(=O)CN2CCN(C3CCN(C(=O)Cn4cc(-c5cnc(N)c6c(-c7ccc8c(c7)CCN8C(=O)Cc7ccccc7)csc56)cn4)CC3)CC2)C(C)(C)C)cc1` [225-2]: 91%; `Cc1ncsc1-c1ccc([C@H](C)NC(=O)[C@@H]2C[C@@H](O)CN2C(=O)[C@@H](NC(=O)CN2CCN(C(=O)Cn3cc(-c4cnc(N)c5c(-c6ccc7c(c6)CCN7C(=O)Cc6ccccc6)csc45)cn3)CC2)C(C)(C)C)cc1` [225-3]: 87%; `Cc1ncsc1-c1ccc([C@H](C)NC(=O)[C@@H]2C[C@@H](O)CN2C(=O)[C@@H](NC(=O)CN2CCN(CC3CCN(C(=O)Cn4cc(-c5cnc(N)c6c(-c7ccc8c(c7)CCN8C(=O)Cc7ccccc7)csc56)cn4)CC3)CC2)C(C)(C)C)cc1` [225-4]: 93%.

(Values after paper PMC12283027, “Development of Potent and Selective RIPK1 Degraders Targeting Its Nonenzymatic Function for Cancer Treatment” (Journal of Medicinal Chemistry, 2025).)
